Results from PMC10126264, “Synergistic effect and antibiofilm activity of the antimicrobial peptide K11 with conventional antibiotics against multidrug-resistant and extensively drug-resistant Klebsiella pneumoniae” (Frontiers in Cellular and Infection Microbiology, 2023).
Converted amounts (≈) assume the structure as drawn. Read-outs that look alike come from different tables or passages of the source.

Key:
[1] = system: MDR/XDR K. pneumoniae clinical isolates; assay: microbe, parasite or virus in culture; settings: Klebsiella pneumoniae
Description: The ability of K11 to inhibit bacterial growth was determined by the broth microdilution method ([Clinical and Laboratory Standards Institute, 2018]). Briefly, a series of 2-fold dilutions of K11 were prepared from 1,024 to 2 µg/mL in cation-adjusted Mueller-Hinton broth (CAMHB), Then 50 µL of each peptide dilution was added to each well of polystyrene 96-well U-bottom microplates. The log-phase cultures were adjusted to 0.5 McFarland standard and diluted 1:100 in CAMHB to provide the density of 10^6 CFU/mL. Consequently, 50 µL of diluted bacterial suspension was added to wells containing 50 µL of peptide solution, followed by incubation for 20-24 h at 37°C. […] To evaluate MBC, a volume of 10 μL was taken from each well with no visible growth, inoculated on Mueller-Hinton agar (MHA) plates, and incubated at 37°C. The MBC was defined as the lowest concentration of antimicrobials that killed at least 99.9% of the initial inoculums ([Clinical and Laboratory Standards Institute, 1999]).

[2] = system: MDR/XDR K. pneumoniae clinical isolates; assay: Antimicrobial susceptibility testing, disk diffusion (CLSI); assay type: cell-based, Klebsiella pneumoniae; settings: all fifteen isolates, CLSI guidelines
Description: (§1) In this study, fifteen non-duplicate clinical isolates of MDR/XDR K. pneumoniae were obtained from the bacterial repository of the Division of Infectious Diseases and Tropical Medicine, Department of Medicine, Faculty of Medicine Siriraj Hospital, Mahidol University. […] Antimicrobial susceptibility testing was also carried out by the disk diffusion method according to CLSI guidelines ([Clinical and Laboratory Standards Institute, 2021]). Furthermore, all isolates were tested for colistin resistance by broth microdilution based on CLSI recommendations. […] The MDR bacteria was defined as bacteria that are resistant to at least one agent in three or more antimicrobial categories, while the XDR bacteria refer to bacteria that are resistant to at least one agent in all but two or fewer antimicrobial categories based on laboratory results. E. coli ATCC 25922 was used as a reference control strain for susceptibility testing. Other reference strains, including K. pneumoniae ATCC 70063 and K. pneumoniae ATCC BAA-1706 (bla KPC […]), were used as control strains throughout the study.

[3] = system: K. pneumoniae ATCC BAA-1706; assay type: cell-based, Klebsiella pneumoniae; settings: compared to day 1
Description: The resistance development of K11, ciprofloxacin, and colistin was assessed according to the previously described protocol ([Pollard et al., 2012]). Briefly, MIC values for a K. pneumoniae ATCC BAA-1706 were first examined and recorded. […] This inoculum was subjected to another MIC assay. […] The process was repeated for 30 passages. The MIC values for K11 and antibiotics were recorded and plotted as the MIC fold change compared to day 1 of the experiment.

[4] = system: MDR/XDR K. pneumoniae clinical isolates; assay: Colistin MIC, broth microdilution (CLSI); assay type: cell-based, Klebsiella pneumoniae; settings: all fifteen isolates, resistance defined as MIC ≥4 µg/mL
Description: as §1

[5] = ref Witherell et al., 2021; cited from earlier work
Excerpt: K11 is a synthetic peptide derived from natural AMPs (cecropin A1, melittin, and maganin 2), composed of 20 amino acids ([…]-NH2). […] Moreover, K11 has also been successfully used in vivo as a topic hydrogel solution against Acinetobacter baumannii-infected wounds ([Rishi et al., 2018]).

| Compound | antimicrobial susceptibility profile [2] | also measured |
| --- | --- | --- |
| CO[C@H]1/C=C/O[C@@]2(C)Oc3c(C)c(O)c4c(O)c(c(/C=N/N5CCN(C)CC5)c(O)c4c3C2=O)NC(=O)/C(C)=C\C=C\[C@H](C)[C@H](O)[C@@H](C)[C@@H](O)[C@@H](C)[C@H](OC(C)=O)[C@@H]1C [rifampicin] |  | MIC [1]: 32 mg/L (≈ 38.9 µM) |
| CC(C)(O/N=C(\C(=O)N[C@@H]1C(=O)N2C(C(=O)[O-])=C(C[n+]3ccccc3)CS[C@H]12)c1csc(N)n1)C(=O)O [ceftazidime] | resistant |  |
| C[C@@H](O)[C@H]1C(=O)N2C(C(=O)O)=C(S[C@@H]3CN[C@H](C(=O)N(C)C)C3)[C@H](C)[C@H]12 [meropenem, reference compound] |  | MIC [1]: 64 mg/L (≈ 167 µM) |
| CO/N=C(\C(=O)N[C@@H]1C(=O)N2C(C(=O)O)=C(CSc3nc(=O)c(=O)[nH]n3C)CS[C@H]12)c1csc(N)n1 [ceftriaxone] | resistant |  |
| CO/N=C(\C(=O)N[C@@H]1C(=O)N2C(C(=O)[O-])=C(C[N+]3(C)CCCC3)CS[C@H]12)c1csc(N)n1 [cefepime] | resistant |  |
| C[C@H]1[C@H](NC(=O)/C(=N\OC(C)(C)C(=O)O)c2csc(N)n2)C(=O)N1S(=O)(=O)O [aztreonam] | resistant |  |
| O=C(O)c1cn(C2CC2)c2cc(N3CCNCC3)c(F)cc2c1=O [ciprofloxacin] |  | MIC fold change ([3]; after 7 serial passages at 0.5×MIC): 16 fold; MIC fold change ([3]; after 12 passages at 0.5×MIC, maintained until 30 passages): 64 fold |
| O=C(N[C@H](CO)[C@H](O)c1ccc([N+](=O)[O-])cc1)C(Cl)Cl [chloramphenicol] | resistant | MIC [1]: 16 mg/L (≈ 49.5 µM) |
| CO[C@@]1(NC(=O)Cc2cccs2)C(=O)N2C(C(=O)O)=C(COC(N)=O)CS[C@@H]21 [cefoxitin] | resistant |  |
| colistin [reference compound] |  | MICs, all isolates [4]: ≥ 4 µg/mL; concentration showing significant hemolytic activity [5]: more than 100 μg/mL |
| C[C@@H](O)[C@H]1C(=O)N2C(C(=O)O)=C(S[C@@H]3CN[C@H](C(=O)Nc4cccc(C(=O)O)c4)C3)[C@H](C)[C@H]12 [ertapenem] | resistant |  |
